The values below come from US7371779B2, “Synergistic compositions of N-acylhomoserine lactones and 4-quinolones” (The Secretary of State for Defense Science and Technology, priority 2001, dated 2008).

Where two headings read alike, the source gives them in different places.

One test concerns human PBMC. The test can be described thus: ConA mitogen-stimulated proliferation of human PBMC ([3H]-thymidine incorporation). The test is classed as cell-based. The following applies: Experiment II, read-out: IC50 in inhibition of ConA induced cell proliferation of PBMC. Here is the method: Blood specimens were obtained with consent from healthy human volunteers. Human peripheral blood mononuclear cells (PBMC) were isolated from heparinised whole blood by buoyant density centrifugation over Histopaque 1077 (Sigma, Poole, UK) at 600 g for 20 minutes. PBMC harvested from the ‘buffy’ layers were washed twice with RPMI 1640 medium and resuspended in CTCM. […] Human PBMC were incubated for 48 h at 37° C. in 5% CO2-air, followed by pulsing with 0.25 μCi [^3H]-thymidine (see above). After a further incubation of 24 h cells were harvested onto fibreglass filters and then counted in the presence of MicroScint-O with the Packard TopCount.
Concanavalin induced cell proliferation of human peripheral blood mononuclear cells (PBMC) was tracked, as described in I above, by a measurement of counts per minute using the scintillation counter. The inhibitory effect of an HSL compound being tested on cell proliferation was indicated by a reduction in counts per minute. […] Columns B, C and D represent different sources of human PBMC samples used.
Plots of counts per minute (cpm) against the concentration of the quorum sensing molecules and the vehicle are shown in FIG. 11.
(Incorporation of labelled thymidine or its analogues reports DNA synthesis.)

The next test relates to murine splenocytes. The test can be described thus: ConA mitogen-stimulated proliferation of murine splenocytes ([3H]-thymidine incorporation). The test is classed as cell-based, mouse (BALB/c). The following applies: for IC50: ConA 1 μg/ml, 100,000 spleen cells, Experiment I, read-out: IC50 in inhibition of ConA induced murine splenocyte proliferation. On the procedure:
(§1) Proliferation was assessed by the incorporation of [^3H]-thymidine into DNA. Eight-week-old female BALB/c mice were obtained from Harlan (Bicester, Oxon, UK) and given food and water ad libitum. Splenocyte suspensions were prepared by removing the spleens and placing them into RPMI 1640 medium. The spleens were forced through 70-μm-pore-size wire gauzes using the plunger from a 5-ml syringe to produce a single cell suspension. The cells were pelleted by centrifugation, and erythrocytes were lysed with 0.017 M Tris, 0.144 M ammonium chloride buffer, pH 7.2. Leucocytes were washed twice with RPMI 1640 medium with 2% (vol/vol) foetal calf serum (FCS) and resuspended in complete cell culture medium (CTCM) consisting of RPMI 1640 medium with 5% FCS, 2 mM L-glutamine, and 5×10^−5 M 2-mercaptoethanol. HSL compounds were tested at doubling down dilutions ranging from 1 mM to 0.1 μM in a final volume of 200 μl of CTCM, containing ConA (Sigma, Poole, UK) at 1 μg/ml and 100,000 spleen cells. Following incubation for 48 h at 37° C. in 5% CO2-air, 0.25 μCi [^3H]-thymidine (Amersham) in 10 μl volume made up in RPMI 1640 medium was added and the cells were incubated for a further 24 h. Cells were harvested onto fibreglass filters with a Packard filtermate harvester. After the addition of 25 μl of MicroScint-O (Packard) to each well the filters were counted with the Packard TopCount scintillation counter.
Mitogen (Concanavalin A) induced murine splenocyte proliferation was indicated by the incorporation of tritated thymidine into the DNA in the mouse spleen cells as shown by counts per minute using the scintillation counter. The inhibitory effect of an HSL compound being tested on cell proliferation was indicated by a reduction in counts per minute.
as §1, with “70 μm pore size” for “70-μm-pore-size”, “5 ml” for “5-ml”, “The title compound was” for “HSL compounds were”, “dilutions” for “dilutions ranging from 1 mM to 0.1 μM in a final volume of 200 μl of CTCM,”, “g/ml” for “μg/ml”, “COrair,” for “CO2-air,”
Mitogen (Concanavalin A) induced murine splenocyte proliferation was indicated by the incorporation of tritated thymidine into the DNA in the mouse spleen cells as shown by counts per minute using the scintillation counter. The inhibitory effect of the title compound being tested on cell proliferation was indicated by a reduction in counts per minute.

For another test, the system named is TNF-alpha. The test can be described thus: TNF-alpha production from LPS-stimulated human PBMC (sandwich ELISA). Format: cell-based. Here is the method:
Bacterial lipopolysaccharide (LPS) stimulates the production of a variety of cytokines, including TNF-alpha, from human PBMC; these cytokines in turn influence the development of T cells, supporting a T helper 1 conducive milieu. Human PBMC prepared from whole blood by buoyant density centrifugation were resuspended in CTCM. […] Following incubation for 24 h at 37° C. in 5% CO2-air, the cell culture supernatants were collected and tested for TNF-alpha levels by ‘sandwich’ ELISA. Briefly, 96-well Nunc MaxiSorp (Life Technologies, Paisley, UK) plates were coated with 50 μl of a 2 μg/ml solution of mouse anti-human TNF-alpha monoclonal antibody (Pharmingen, UK) in 0.05 M carbonate/bicarbonate buffer, pH 9.6 overnight at 4° C. After washing the plates three times with PBS-Tween, which contained phosphate buffered saline (PBS) with 0.5% (vol/vol) Tween 20 (Sigma, Poole, UK), the plates were blocked with 1% (wt/vol) bovine serum albumin (BSA) (Sigma, Poole, UK) at room temperature for 2 h. Following three washes with PBS-Tween, 50 μl of cell culture supernatants were added and incubated overnight at 4° C.; standard human TNF-alpha (Pharmingen, UK) ranging from 2000 to 31.25 pg/ml were included for each plate. After four washes with PBS-Tween, 50 μl of a second antibody, biotinylated mouse anti-human TNF-alpha monoclonal antibody (Pharmingen, UK) was added at 0.5 μg/1 ml diluted in 1% BSA in PBS-Tween and incubated at room temperature for 1 h. Following four washes, the bound biotinylated antibody was detected with 50 μl of a 1:1,000 dilution of Streptavidin-peroxidase (Pharmingen, UK). At the end of an hour incubation at room temperature, the plates were thoroughly washed six times with PBS-Tween and the assay was developed by the addition of 100 μl of 0.1 mg/ml of tetramethyl benzidine subtrate (Sigma, Poole, UK) in 0.1 M sodium acetate buffer, pH 6 containing 0.03% H2O2. The enzyme reaction was stopped with 50 μl of 2.5 M H2SO4 after an incubation of 10 minutes at room temperature and the development was read at 450 nm with a spectrophotometric 96-well plate reader (Dynex).
Background: In an ELISA, binding on a coated surface is turned into a signal by an enzyme label.

Turning to `CCCCCCCCC(=O)CC(=O)N[C@H]1CCOC1=O` [Example 1, N-(3-oxoundecanoyl)-L-homoserine lactone], the IC50 with human PBMC (human PBMC source B) is 63 µM; in the test with human PBMC (human PBMC source C), 13 µM; with human PBMC (human PBMC source D) it was 44 µM; with murine splenocytes, 9 µM.

Take `O=C(CCCCCCCCBr)CC(=O)N[C@H]1CCOC1=O` [Example 2, N-(11-Bromo-3-oxoundecanoyl)-L-homoserine lactone]: the IC50 in the test with human PBMC (human PBMC source B) stood at 18 µM; in the test on murine splenocytes, 6 µM.

With `CC(C)CCCCCCC(=O)CC(=O)N[C@H]1CCOC1=O` [Example 3, N-(10-Methyl-3-oxoundecanoyl)-L-homoserine lactone], the figures for the IC50 in the test on human PBMC (human PBMC source D) and with murine splenocytes were 25 µM and 8 µM, respectively.

In the case of `COC(=O)CCCCCCC(=O)CC(=O)N[C@H]1CCOC1=O` [Example 4, N-(10-Methoxycarbonyl-3-oxodecanoyl)-L-homoserine lactone], the IC50 in the test with human PBMC (human PBMC source B) was 20 µM; with human PBMC (human PBMC source D) it was 63 µM; in the test with murine splenocytes it was 73 µM.

With `CCCCCC(C)CCC(=O)CC(=O)N[C@H]1CCOC1=O` (stereo partly drawn) [Example 5, N-(6-Methyl-3-oxoundecanoyl)-L-homoserine lactone], the IC50 is 20 µM in the test with human PBMC (human PBMC source B) and 5 µM in the test with murine splenocytes.

As to `CCCCCCCCCCC(=O)CC(=O)N[C@H]1CCOC1=O` [Example 8, N-(3-Oxotridecanoyl)-L-homoserine lactone], the IC50 with human PBMC (human PBMC source B) amounted to 41 µM; with human PBMC (human PBMC source C) it was 7 µM; with human PBMC (human PBMC source D), 25 µM; in the test with murine splenocytes, 4 µM.

For `O=C(CCCCCCCCCCBr)CC(=O)N[C@H]1CCOC1=O` [Example 9, N-(13-Bromo-3-oxotridecanoyl)-L-homoserine lactone], the IC50 was determined as 8 µM with human PBMC (human PBMC source B), 12 µM with human PBMC (human PBMC source D) and 3 µM in the test on murine splenocytes.

Turning to `C=CCCCCCCCCC(=O)CC(=O)N[C@H]1CCOC1=O` [Example 10, N-(3-Oxo-12-tridecenoyl)-L-homoserine lactone], the IC50 in the test with murine splenocytes came out at 7 µM.

In the case of `O=C(CCCCCCCCCCCBr)CC(=O)N[C@H]1CCOC1=O` [Example 12, N-(14-Bromo-3-oxotetradecanoyl)-L-homoserine lactone], the IC50 in the test with murine splenocytes came out at 8 µM.

On to `COC(=O)CCCCCCCCCCC(=O)CC(=O)N[C@H]1CCOC1=O` [Example 13, N-(13-Methoxycarbonyl-3-oxotridecanoyl)-L-homoserine lactone], for which the IC50 was 15 µM in the test on human PBMC (human PBMC source B), 20 µM in the test on human PBMC (human PBMC source D) and 6 µM in the test with murine splenocytes.

For the compound `CCCCCCC=CCCCC(=O)CC(=O)N[C@H]1CCOC1=O` [Example 14, N-(3-Oxo-7-tetradecenoyl)-L-homoserine lactone], the IC50 in the test with murine splenocytes was found to be 17 µM.

As to `CCCC=CCCCCCCC(=O)CC(=O)N[C@H]1CCOC1=O` [Example 16, N-(3-Oxo-10-tetradecenoyl)-L-homoserine lactone], the IC50 in the test with murine splenocytes turned out to be 15 µM.

Consider `CCC=CCCCCCCCC(=O)CC(=O)N[C@H]1CCOC1=O` [Example 17, N-(3-Oxo-11-tetradecenoyl)-L-homoserine lactone], for which the IC50 in the test with murine splenocytes was 12 µM.

`C=CCCCCCCCCCC(=O)CC(=O)N[C@H]1CCOC1=O` [Example 18, N-(3-Oxo-13-tetradecenoyl)-L-lactone homoserine]: the IC50 in the test on murine splenocytes worked out at 10 µM.

Regarding `O=C(CCCCCCCCCO)CC(=O)N[C@H]1CCOC1=O` [Example 19, N-(12-Hydroxy-3-oxododecanoyl)-L-homoserine lactone], the IC50 came to 70 µM with TNF-alpha (Experiment III, read-out: IC50 in inhibition of LPS induced production of TNF-α by human PBMC) and 9 µM in the test with murine splenocytes.

Take `CN(C)C(=O)CCCCCCCCC(=O)CC(=O)N[C@H]1CCOC1=O` [Example 20, N-[11-(N,N-Dimethylcarbamoyl)-3-oxoundecanoyl]-L-homoserine lactone]: the IC50 in the test with murine splenocytes came to 35 µM.

With `CCCCCCCCCC(O)CC(=O)N[C@H]1CCOC1=O` (stereo partly drawn) [Example 21, N-(3-Hydroxydodecanoyl)-L-homoserine lactone], the IC50 with murine splenocytes worked out at 12 µM.

Regarding `CCCCCCCCCCCC(O)CC(=O)N[C@H]1CCOC1=O` (stereo partly drawn) [Example 22, N-(3-Hydroxytetradecanoyl)-L-homoserine lactone], the IC50 in the test on murine splenocytes turned out to be 7 µM.

Turning to `CCCCCCC=CCCCC(O)CC(=O)N[C@H]1CCOC1=O` (stereo partly drawn) [Example 23, N-(3-Hydroxy-7-tetradecenoyl)-L-homoserine lactone], the IC50 in the test on murine splenocytes is 12 µM.

As for `CCCC=CCCCCCCC(O)CC(=O)N[C@H]1CCOC1=O` (stereo partly drawn) [Example 25, N-(3-Hydroxy-10-tetradecenoyl)-L-homoserine lactone], in the test on murine splenocytes, the IC50 amounted to 20 µM.

In the case of `CCC=CCCCCCCCC(O)CC(=O)N[C@H]1CCOC1=O` (stereo partly drawn) [Example 26, N-(3-Hydroxy-11-tetradecenoyl)-L-homoserine lactone], the IC50 with murine splenocytes came to 20 µM.

For `C=CCCCCCCCCCC(O)CC(=O)N[C@H]1CCOC1=O` (stereo partly drawn) [Example 27, N-(3-Hydroxy-13-tetradecenoyl)-L-homoserine lactone], the IC50 in the test on murine splenocytes worked out at 18 µM.

Turning to `CCCC(=O)CC(=O)N[C@H]1CCOC1=O` [OHHL, reference compound], the “inhibition of LPS induced TNF-α production by human PBMC, in words” value in the test with TNF-alpha (LPS-stimulated human PBMC) was “difference in activity between OHHL and OdDHL is marked”.

On to `CCCCCC(=O)CC(=O)N[C@H]1CCOC1=O` [OOHL, N-(3-oxooctanoyl)-L-homoserine lactone, reference compound], for which the “inhibition of ConA induced murine splenocyte proliferation (cpm), in words” value in the test with murine splenocytes (ConA 1 μg/ml, BALB/c splenocytes) is listed as “failed to inhibit proliferation”.

With “N-(3-Hydroxy-9-tetradecenoyl)-L-homoserine lactone [Example 24]”, the IC50 with murine splenocytes turned out to be 15 µM.
